Several values for one entry are separate records, joined by “and”; a condition that tells them apart may be missing. Identical values can stand only once. Toxic doses and inconclusive results are not listed.
Tested on: P388 leukemia ip, CD2F1 mice, survival T/C
Experiment: NCI In Vivo Anticancer Drug Screen. Data for tumor model P388 Leukemia (intraperitoneal) in CD2F1 (CDF1) mice
Settings: endpoint: median survival time, higher = longer survival
How it was run: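 Mice carrying the transplanted tumor received test compound or vehicle. Survival was recorded in each group, and the value is the treated-group measurement divided by that of the vehicle-treated control group.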

[1] = dose: 50.0 mg/kg/injection, schedule: Q01DX009 (ip), vehicle: saline
[2] = dose: 100.0 mg/kg/injection, schedule: Q01DX009 (ip), vehicle: saline
[3] = dose: 200.0 mg/kg/injection, schedule: Q01DX009 (ip), vehicle: saline
[4] = dose: 60.0 mg/kg/injection, schedule: Q01DX005 (ip), vehicle: saline with Tween-80
[5] = dose: 120.0 mg/kg/injection, schedule: Q01DX005 (ip), vehicle: saline with Tween-80
[6] = dose: 240.0 mg/kg/injection, schedule: Q01DX005 (ip), vehicle: saline with Tween-80
[7] = dose: 25.0 mg/kg/injection, schedule: Q01DX009 (ip), vehicle: saline with Tween-80
[8] = dose: 50.0 mg/kg/injection, schedule: Q01DX009 (ip), vehicle: saline with Tween-80
[9] = dose: 100.0 mg/kg/injection, schedule: Q01DX009 (ip), vehicle: saline with Tween-80
[10] = dose: 200.0 mg/kg/injection, schedule: Q01DX009 (ip), vehicle: saline with Tween-80
[11] = dose: 50.0 mg/kg/injection, schedule: Q01DX005 (ip), vehicle: saline
[12] = dose: 100.0 mg/kg/injection, schedule: Q01DX005 (ip), vehicle: saline
[13] = dose: 200.0 mg/kg/injection, schedule: Q01DX005 (ip), vehicle: saline
[14] = dose: 60.0 mg/kg/injection, schedule: Q01DX005 (ip), vehicle: Klucel (hydroxypropylcellulose) (HPC)
[15] = dose: 120.0 mg/kg/injection, schedule: Q01DX005 (ip), vehicle: Klucel (hydroxypropylcellulose) (HPC)

## CSCSCC(N)CO (stereo unspecified)
dose: 25.0 mg/kg/injection, schedule: Q01DX005 (ip), vehicle: water
  T/C: 95 % of control
dose: 50.0 mg/kg/injection, schedule: Q01DX005 (ip), vehicle: water
  T/C: 100 % of control
dose: 100.0 mg/kg/injection, schedule: Q01DX005 (ip), vehicle: water
  T/C: 89 % of control
dose: 200.0 mg/kg/injection, schedule: Q01DX005 (ip), vehicle: water
  T/C: 95 % of control
dose: 400.0 mg/kg/injection, schedule: Q01DX005 (ip), vehicle: water
  T/C: 89 % of control

## O=C(O)C1CSC(c2ccncc2)N1 (stereo unspecified)
[1]
  T/C: 96 % of control and 97 % of control
[2]
  T/C: 96 % of control
[3]
  T/C: 94 % of control

## COC1=C(C(C2=C(OC)CC(C)(C)CC2=O)c2ccc3c(c2)OCO3)C(=O)CC(C)(C)C1
[4]
  T/C: 102 % of control
[5]
  T/C: 111 % of control
[6]
  T/C: 101 % of control

## COc1ccc(OCCC(=O)O)cc1
dose: 1.56 mg/kg/injection, schedule: Q01DX009 (ip), vehicle: saline with Tween-80
  T/C: 109 % of control
dose: 3.12 mg/kg/injection, schedule: Q01DX009 (ip), vehicle: saline with Tween-80
  T/C: 112 % of control
dose: 6.25 mg/kg/injection, schedule: Q01DX009 (ip), vehicle: saline with Tween-80
  T/C: 112 % of control and 86 % of control
[7]
  T/C: 105 % of control
[8]
  T/C: 102 % of control

## C=C(C)C(O)C(O)c1cc2ccc(=O)oc2cc1OC (stereo unspecified)
dose: 12.5 mg/kg/injection, schedule: Q01DX009 (ip), vehicle: saline with Tween-80
  T/C: 99 % of control
[7]
  T/C: 99 % of control
[8]
  T/C: 99 % of control
[9]
  T/C: 107 % of control

## COc1c(Br)cnc2ccccc12
dose: 12.5 mg/kg/injection, schedule: Q01DX009 (ip), vehicle: distilled water + Tween-80
  T/C: 96 % of control
dose: 25.0 mg/kg/injection, schedule: Q01DX009 (ip), vehicle: distilled water + Tween-80
  T/C: 96 % of control
dose: 50.0 mg/kg/injection, schedule: Q01DX009 (ip), vehicle: distilled water + Tween-80
  T/C: 102 % of control
dose: 100.0 mg/kg/injection, schedule: Q01DX009 (ip), vehicle: distilled water + Tween-80
  T/C: 102 % of control
dose: 200.0 mg/kg/injection, schedule: Q01DX009 (ip), vehicle: distilled water + Tween-80
  T/C: 93 % of control

## Cc1ncc(C[n+]2cccc(CCO)c2C)c(N)n1
dose: 50.0 mg/kg/injection, schedule: Q04DX003 (ip), vehicle: saline
  T/C: 97 % of control
dose: 100.0 mg/kg/injection, schedule: Q04DX003 (ip), vehicle: saline
  T/C: 103 % of control
dose: 200.0 mg/kg/injection, schedule: Q04DX003 (ip), vehicle: saline
  T/C: 100 % of control

## NC(=S)N/N=C1/CC(=O)N(c2ccccc2)C1c1ccccc1 (stereo unspecified)
[4]
  T/C: 103 % of control
[5]
  T/C: 98 % of control
[6]
  T/C: 94 % of control

## CC1Cn2c(Cc3ccccc3)nnc2S1 (stereo unspecified)
[4]
  T/C: 104 % of control
[5]
  T/C: 93 % of control
[6]
  T/C: 100 % of control

## CN1C(=O)N(C)C2(C=Cc3ccccc3O2)N(C)C1=O
dose: 50.0 mg/kg/injection, schedule: Q04DX003 (ip), vehicle: saline with Tween-80
  T/C: 92 % of control
dose: 100.0 mg/kg/injection, schedule: Q04DX003 (ip), vehicle: saline with Tween-80
  T/C: 98 % of control
dose: 200.0 mg/kg/injection, schedule: Q04DX003 (ip), vehicle: saline with Tween-80
  T/C: 92 % of control

## CN(C)C(=O)n1ccc(NC=O)n1
[1]
  T/C: 92 % of control
[2]
  T/C: 94 % of control
[3]
  T/C: 103 % of control

## CN1CCN(C(=O)c2cccc3cccc(C(=O)O)c23)CC1
dose: 60.0 mg/kg/injection, schedule: Q01DX005 (ip), vehicle: water
  T/C: 103 % of control
dose: 120.0 mg/kg/injection, schedule: Q01DX005 (ip), vehicle: water
  T/C: 93 % of control
dose: 240.0 mg/kg/injection, schedule: Q01DX005 (ip), vehicle: water
  T/C: 100 % of control

## CCCCN=Cc1c(O)c(O)c(C(C)C)c2cc(C)c(-c3c(C)cc4c(C(C)C)c(O)c(O)c(C=NCCCC)c4c3O)c(O)c12
dose: 50.0 mg/kg/injection, schedule: Q01DX005 (ip), vehicle: Klucel (hydroxypropylcellulose) (HPC)
  T/C: 99 % of control
dose: 100.0 mg/kg/injection, schedule: Q01DX005 (ip), vehicle: Klucel (hydroxypropylcellulose) (HPC)
  T/C: 107 % of control
dose: 200.0 mg/kg/injection, schedule: Q01DX005 (ip), vehicle: Klucel (hydroxypropylcellulose) (HPC)
  T/C: 114 % of control

## CCOc1ccc2cc3c(nc2n1)[nH]c1ccccc13
dose: 100.0 mg/kg/injection, schedule: Q04DX003 (ip), vehicle: Klucel (hydroxypropylcellulose) (HPC)
  T/C: 103 % of control
dose: 200.0 mg/kg/injection, schedule: Q04DX003 (ip), vehicle: Klucel (hydroxypropylcellulose) (HPC)
  T/C: 107 % of control
dose: 400.0 mg/kg/injection, schedule: Q04DX003 (ip), vehicle: Klucel (hydroxypropylcellulose) (HPC)
  T/C: 110 % of control

## CCCCC(NC(=O)c1ccccc1)C(=O)O (stereo unspecified)
[8]
  T/C: 92 % of control
[9]
  T/C: 100 % of control
[10]
  T/C: 98 % of control

## Cc1nccnc1NN=O
dose: 3.12 mg/kg/injection, schedule: Q01DX009 (ip), vehicle: water
  T/C: 101 % of control
dose: 6.25 mg/kg/injection, schedule: Q01DX009 (ip), vehicle: water
  T/C: 104 % of control
dose: 12.5 mg/kg/injection, schedule: Q01DX009 (ip), vehicle: water
  T/C: 111 % of control and 113 % of control
dose: 100.0 mg/kg/injection, schedule: Q01DX009 (ip), vehicle: water
  T/C: 87 % of control

## COc1cccc2c1C(=O)c1c(O)c3c(c(O)c1C2=O)CC(O)(C(=O)CO)CC3OC1CC(N)C(O)C(C)O1 (stereo unspecified) (tested in a mixture with another compound)
dose: 6.25 mg/kg/injection, schedule: Q01DX009 (ip), vehicle: other
  T/C: 115 % of control
dose: 25.0 mg/kg/injection, schedule: Q01DX009 (ip), vehicle: other
  T/C: 89 % of control

## COc1ccc(Cc2ccc3c(c2)OCO3)cc1C
[11]
  T/C: 104 % of control
[12]
  T/C: 104 % of control
[13]
  T/C: 111 % of control

## C1O[C@@H]1[C@H]1CO1
dose: 6.25 mg/kg/injection, schedule: Q01DX009 (ip), vehicle: saline
  T/C: 104 % of control
dose: 6.25 mg/kg/injection, schedule: Q04DX003 (ip), vehicle: saline
  T/C: 120 % of control
dose: 12.5 mg/kg/injection, schedule: Q01DX009 (ip), vehicle: saline
  T/C: 109 % of control
dose: 12.5 mg/kg/injection, schedule: Q04DX003 (ip), vehicle: saline
  T/C: 120 % of control
dose: 25.0 mg/kg/injection, schedule: Q01DX009 (ip), vehicle: saline
  T/C: 157 % of control
dose: 25.0 mg/kg/injection, schedule: Q04DX003 (ip), vehicle: saline
  T/C: 100 % of control

## CC(NC(=O)CCl)C(=O)O (stereo unspecified)
[7]
  T/C: 105 % of control and 109 % of control
[8]
  T/C: 101 % of control and 103 % of control
[1]
  T/C: 101 % of control
[9]
  T/C: 105 % of control and 95 % of control
[2]
  T/C: 105 % of control
[10]
  T/C: 103 % of control
[3]
  T/C: 101 % of control

## C=C1C(=O)OC2C(OC=O)CCCC12 (stereo unspecified)
[14]
  T/C: 100 % of control
[15]
  T/C: 103 % of control

## CC(=S)N(c1ccccc1)c1ccccc1
[14]
  T/C: 101 % of control
[15]
  T/C: 96 % of control
dose: 240.0 mg/kg/injection, schedule: Q01DX005 (ip), vehicle: Klucel (hydroxypropylcellulose) (HPC)
  T/C: 93 % of control

## C=C=C(C)CN(CC)CC
[11]
  T/C: 108 % of control
[12]
  T/C: 107 % of control
[13]
  T/C: 108 % of control

## CC(NNC(=S)N1CC2CCC(CC2)C1)c1cccc[n+]1[O-] (stereo unspecified)
dose: 50.0 mg/kg/injection, schedule: Q01DX005 (ip), vehicle: saline with Tween-80
  T/C: 101 % of control
dose: 100.0 mg/kg/injection, schedule: Q01DX005 (ip), vehicle: saline with Tween-80
  T/C: 100 % of control
dose: 200.0 mg/kg/injection, schedule: Q01DX005 (ip), vehicle: saline with Tween-80
  T/C: 100 % of control

## Cc1nn(CCO)c2nc(N)nc(N)c12
dose: 100.0 mg/kg/injection, schedule: Q01DX001 (ip), vehicle: suspension in saline
  T/C: 104 % of control
dose: 200.0 mg/kg/injection, schedule: Q01DX001 (ip), vehicle: suspension in saline
  T/C: 101 % of control
dose: 400.0 mg/kg/injection, schedule: Q01DX001 (ip), vehicle: suspension in saline
  T/C: 100 % of control

## CC1C(=O)OC2C1CCC1(C)C=C(Cl)C(=O)C3(C)OC213 (stereo unspecified)
dose: 50.0 mg/kg/injection, schedule: Q04DX002 (ip), vehicle: saline with Tween-80
  T/C: 100 % of control
dose: 100.0 mg/kg/injection, schedule: Q04DX002 (ip), vehicle: saline with Tween-80
  T/C: 100 % of control
dose: 200.0 mg/kg/injection, schedule: Q04DX002 (ip), vehicle: saline with Tween-80
  T/C: 100 % of control
